Literature values as cited in the PKSmart pharmacokinetics tables (Seal et al. 2025).

Assay: Lombardo, Berellini, Obach 2018, Drug Metab Dispos 46:1466, doi 10.1124/dmd.118.082966
Conditions: human; for MRT / Vd / clearance / half-life: in vivo, iv; for fraction unbound: plasma

For `C/C=C(/C)C(=O)O[C@H]1[C@H](OC(C)=O)[C@]2(CO)[C@H](O)C[C@]3(C)C(=CC[C@@H]4[C@@]5(C)CC[C@H](O[C@@H]6OC(C(=O)O)[C@@H](O[C@@H]7O[C@H](CO)[C@@H](O)[C@H](O)[C@H]7O)[C@H](O)[C@H]6O[C@@H]6O[C@H](CO)[C@@H](O)[C@H](O)[C@H]6O)[C@](C)(CO)[C@@H]5CC[C@]43C)[C@@H]2CC1(C)C` (some centres undefined), the MRT is given as 1.5 h, the Vd is given as 0.23 L/kg and the clearance is given as 2.55 mL/min/kg. The half-life was 108 min.
For `O[C@](CO[C@@H]1CN2CCC1CC2)(c1ccccc1)C1CCCC1`, the MRT is listed as 17.8 h, the Vd is listed as 2.12 L/kg and the clearance is listed as 1.99 mL/min/kg. For the same compound, the half-life was 944 min.
For `C=CCC1(C(C)C#CCC)C(=O)NC(=O)N(C)C1=O` (centres undefined), the MRT is listed as 1.5 h, the Vd is listed as 1.1 L/kg and the clearance is listed as 12 mL/min/kg. For the same compound, the half-life was 96 min and the fraction unbound was 0.27.
In the case of `O=C(O)c1cc(N=Nc2ccc(O)c(C(=O)O)c2)ccc1O`, the MRT is listed as 0.97 h, the Vd is listed as 0.07 L/kg and the clearance is listed as 1.2 mL/min/kg. For the same compound, the half-life was 54 min and the fraction unbound was 0.01.
In the case of `CCOC(=O)[C@]1(c2ccccc2)CCC=C[C@H]1N(C)C`, the MRT is given as 4.2 h, the Vd is given as 4 L/kg and the clearance is given as 16 mL/min/kg. For the same compound, the half-life was 300 min and the fraction unbound was 0.21.
For `COC(=O)Nc1nc2cc(C(=O)c3ccccc3)ccc2[nH]1`, the MRT is listed as 1.3 h, the Vd is listed as 1.2 L/kg and the clearance is listed as 15 mL/min/kg. The half-life was 66 min.
In the case of `C#C[C@]1(O)CC[C@H]2[C@@H]3CC=C4CC(=O)CCC4[C@H]3C(=C)C[C@@]21CC` (some centres undefined), the MRT is listed as 23.6 h, the Vd is listed as 2.87 L/kg and the clearance is listed as 2 mL/min/kg. The half-life was 1500 min and the fraction unbound was 0.02.
In the case of `CC[C@H]1CN2CC[C@H]1C[C@@H]2[C@@H](O)c1ccnc2ccc(OC)cc12`, the MRT is listed as 11 h, the Vd is listed as 2.8 L/kg and the clearance is listed as 4.2 mL/min/kg. The half-life was 342 min and the fraction unbound was 0.22.
In the case of `CN[C@@H]1[C@H](O[C@H]2[C@H](O[C@H]3[C@H](O)[C@@H](O)[C@H](NC(=N)N)[C@@H](O)[C@@H]3NC(=N)N)O[C@@H](C)[C@]2(O)C=O)O[C@@H](CO)[C@H](O)[C@H]1O`, the MRT is listed as 7.3 h, the Vd is listed as 0.34 L/kg and the clearance is listed as 0.78 mL/min/kg. For the same compound, the half-life was 258 min and the fraction unbound was 0.65.
In the case of `CC[C@H]1OC(=O)C(C)[C@@H](O[C@H]2C[C@@](C)(OC)[C@@H](O)[C@H](C)O2)[C@H](C)[C@@H](O[C@@H]2O[C@H](C)C[C@H](N(C)C)[C@H]2O)[C@](C)(OC)CC(C)C(=O)C(C)[C@@H](O)[C@]1(C)O` (some centres undefined), the MRT is listed as 3.4 h, the Vd is listed as 1.5 L/kg and the clearance is listed as 7.3 mL/min/kg. For the same compound, the half-life was 168 min.
In the case of `NS(=O)(=O)c1cc(C2(O)NC(=O)c3ccccc32)ccc1Cl` (centres undefined), the MRT is listed as 43 h, the Vd is listed as 3.9 L/kg and the clearance is listed as 1.5 mL/min/kg. The half-life was 2160 min.
For `CN/C(=N\CCSCc1nc[nH]c1C)NC#N`, the MRT is given as 2.5 h, the Vd is given as 1.2 L/kg and the clearance is given as 8.1 mL/min/kg. For the same compound, the half-life was 132 min.
In the case of `O=C(Nc1c(Cl)cncc1Cl)c1ccc(OC(F)F)c(OCC2CC2)c1`, the fraction unbound is given as 0.01.
For `Cc1ccc(C(CN)CC(=O)O)cc1` (centres undefined), the MRT is given as 6.36 h, the Vd is given as 0.65 L/kg and the clearance is given as 1.7 mL/min/kg. The half-life was 314 min and the fraction unbound was 0.69.
For `O=C(O)C1O[C@@H](Oc2cc3oc(-c4ccc(O)cc4)cc(=O)c3c(O)c2O)[C@H](O)[C@@H](O)[C@@H]1O` (some centres undefined), the MRT is listed as 0.31 h, the Vd is listed as 0.88 L/kg and the clearance is listed as 46.6 mL/min/kg. The half-life was 70.8 min and the fraction unbound was 0.1.
In the case of `CCc1c(O)cc(O)c(C(=O)c2ccc(OCCN3CCOCC3)c(OC)c2)c1CC(=O)N(CCOC)CCOC`, the MRT is given as 3.21 h, the Vd is given as 1.32 L/kg and the clearance is given as 6.87 mL/min/kg. For the same compound, the half-life was 356 min.
For `C=CCN(C1=NCCN1)c1c(Cl)cccc1Cl`, the MRT is given as 3.77 h, the Vd is given as 2.72 L/kg and the clearance is given as 12 mL/min/kg. The half-life was 188 min and the fraction unbound was 0.4.
For `Cc1ccc(S(=O)(=O)NC(=O)N[C@H]2[C@H]3CC[C@@](C)([C@H]2O)C3(C)C)cc1`, the MRT is listed as 13 h, the Vd is listed as 0.27 L/kg and the clearance is listed as 0.34 mL/min/kg. For the same compound, the half-life was 552 min.
For `CN(C)CCN1C(=O)c2cccc3cc(N)cc(c23)C1=O`, the MRT is given as 6.34 h, the Vd is given as 7.33 L/kg and the clearance is given as 19.3 mL/min/kg. The half-life was 287 min.
In the case of `O=C(NCCN1CCOCC1)c1ccc(Cl)cc1`, the MRT is given as 1.8 h, the Vd is given as 1.1 L/kg and the clearance is given as 10 mL/min/kg. For the same compound, the half-life was 90 min.
In the case of `COc1ccc2c(c1OC)C(=O)O[C@@H]2[C@H]1c2c(cc3c(c2OC)OCO3)CCN1C`, the MRT is listed as 2.28 h, the Vd is listed as 2.3 L/kg and the clearance is listed as 16.9 mL/min/kg. The half-life was 128 min.
In the case of `COC(=O)O[C@@]12CO[C@@H]1C[C@H](O)[C@@]1(C)C(=O)C(OC(C)=O)=C3C(C)[C@@H](OC(=O)C(O)C(NC(=O)c4ccccc4)c4ccccc4)C[C@@](O)([C@@H](OC(=O)c4ccccc4)[C@H]21)C3(C)C` (some centres undefined), the MRT is listed as 13 h, the Vd is listed as 6.9 L/kg and the clearance is listed as 8.6 mL/min/kg. For the same compound, the half-life was 1860 min.
In the case of `NN=c1cc2c(n[nH]1)CCN(C(=O)c1ccccc1)C2`, the MRT is listed as 2.7 h, the Vd is listed as 2.2 L/kg and the clearance is listed as 13 mL/min/kg. The half-life was 336 min.
For `NS(=O)(=O)c1ccc(S(=O)(=O)Nc2cccc3c(Cl)c[nH]c23)cc1`, the MRT is listed as 16.9 h, the Vd is listed as 0.68 L/kg and the clearance is listed as 0.72 mL/min/kg. For the same compound, the half-life was 1220 min and the fraction unbound was 0.001.
For `Cc1nc(=O)c2cc(CN(C)c3ccc(C(=O)NC(CCC(=O)O)C(=O)O)s3)ccc2[nH]1` (centres undefined), the MRT is listed as 123 h, the Vd is listed as 6.57 L/kg and the clearance is listed as 0.9 mL/min/kg. For the same compound, the half-life was 8400 min and the fraction unbound was 0.05.
For `Nc1nc2c(ncn2COC(CO)CO)c(=O)[nH]1`, the MRT is given as 3.7 h, the Vd is given as 1 L/kg and the clearance is given as 4.6 mL/min/kg. The half-life was 222 min.
For `CCC1(c2cnc[nH]2)Cc2ccccc2C1`, the MRT is listed as 2.3 h, the Vd is listed as 2.7 L/kg and the clearance is listed as 19.6 mL/min/kg. For the same compound, the half-life was 102 min.
For `CN(C)CCCO[C@@H]1[C@H]2OC(C)(C)O[C@H]2O[C@@H]1[C@H](O)CO`, the MRT is given as 5 h, the Vd is given as 1.04 L/kg and the clearance is given as 3.48 mL/min/kg. For the same compound, the half-life was 244 min and the fraction unbound was 0.97.
In the case of `CCCn1c(=O)[nH]c(=O)c2nc[nH]c21`, the MRT is given as 2.6 h, the Vd is given as 0.63 L/kg and the clearance is given as 4 mL/min/kg. For the same compound, the half-life was 108 min and the fraction unbound was 0.55.
In the case of `NC(C(=O)NC1C(=O)N2C(C(=O)O)=C(CSc3c[nH]nn3)CS[C@H]12)c1ccc(O)cc1` (some centres undefined), the MRT is given as 1.1 h, the Vd is given as 0.22 L/kg and the clearance is given as 3.3 mL/min/kg. The half-life was 72 min.
In the case of `CNC(=O)c1cnn(-c2nc(N)c3ncn([C@@H]4O[C@H](CO)[C@@H](O)[C@H]4O)c3n2)c1`, the MRT is listed as 2.1 h, the Vd is listed as 0.94 L/kg and the clearance is listed as 7.3 mL/min/kg. The half-life was 120 min and the fraction unbound was 0.7.
For `C[C@H]1COc2c(C3(N)CC3)c(F)cc3c(=O)c(C(=O)O)cn1c23`, the MRT is listed as 2.32 h, the Vd is listed as 0.68 L/kg and the clearance is listed as 4.87 mL/min/kg. The half-life was 126 min and the fraction unbound was 0.79.
For `CC1(C)S[C@@H]2C(NC(=O)Cc3ccccc3)C(=O)N2C1C(=O)O` (some centres undefined), the MRT is given as 0.58 h, the Vd is given as 0.24 L/kg and the clearance is given as 6.9 mL/min/kg. For the same compound, the half-life was 42 min and the fraction unbound was 0.4.
In the case of `Cc1onc(-c2c(Cl)cccc2Cl)c1C(=O)NC1C(=O)N2C(C(=O)O)C(C)(C)S[C@H]12` (some centres undefined), the MRT is given as 0.92 h, the Vd is given as 0.11 L/kg and the clearance is given as 2 mL/min/kg. The half-life was 52.8 min.
